Drawing on US10253029B2, “Dual-warhead covalent inhibitors of FGFR-4” (Newave Pharmaceutical Inc., priority 2015, dated 2019), this text covers IC50 for eight compounds.

Broadly, the IC50 is the concentration that gives 50% inhibition.

For assay [1], the system named is patient-derived liver cancer cell line LIXC012. The assay is described as follows: Antiproliferative activity, ATPlite Luminescence Assay. The note with it: FGF19-overexpressing LIXC012 cells, about 72 hours, 5% FBS; read-out: LIXC012 IC50 (cellular antiproliferative). It counts as cell-based. The procedure: The antiproliferative activity of compounds are assessed in the patient-derived liver cancer cell line LIXC012 (Shanghai ChemPartner Co., LTD) by PerkinElmer ATPlite™ Luminescence Assay System. LIXC012 cell line has a FGFR-4 aberrant signaling pathway (FGF19-overexpressing). Briefly, the various test cancer cell lines are plated at a density of about 1×10^4 cells per well in Costar 96-well plates, and are incubated with different concentrations of compounds for about 72 hours in medium supplemented with 5% FBS. One lyophilized substrate solution vial is then reconstituted by adding 5 mL of substrate buffer solution, and is agitated gently until the solution is homogeneous. About 50 μL of mammalian cell lysis solution is added to 100 μL of cell suspension per well of a microplate, and the plate is shaken for about five minutes in an orbital shaker at ˜700 rpm. This procedure is used to lyse the cells and to stabilize the ATP. Next, 50 μL substrate solution is added to the wells and microplate is shaken for five minutes in an orbital shaker at ˜700 rpm. Finally, the luminescence is measured by a PerkinElmer TopCount® Microplate Scintillation Counter. Such assays, carried out with a range of doses of test compounds, allow the determination of the cellular anti-antiproliferative IC50 of the compounds of the present invention. The following table lists the IC50 values of certain compounds of the invention in the FGF19-overexpressing Patient-Derived liver cancer cell line LIXC012.
(In general: Cellular ATP, detected with luciferase, serves as a proxy for viable cell number.)

Assay [2] addresses T1, wild type FGFR-4 (Homo sapiens, UniProt P22455).
T1 construct: purchased Carna Biosciences, Inc
Put plainly: FGFR-4 wild type assay at Km (Caliper mobility shift). It counts as biochemical. The conditions noted are these: wild type FGFR-4, 400 uM ATP, 25 C, 90 minutes. The procedure:
(§1) In order to assess the activity of chemical compounds against the relevant kinase of interest, the Caliper LifeSciences electrophoretic mobility shift technology platform is utilized. Fluorescently labeled substrate peptide is incubated in the presence dosed levels of compounds, a set concentration of kinase and of ATP, so that a reflective proportion of the peptide is phosphorylated. At the end of the reaction, the mix of phosphorylated (product) and non-phosphorylated (substrate) peptides are passed through the microfluidic system of the Caliper LabChip® EZ Reader II, under an applied potential difference. The presence of the phosphate group on the product peptide provides a difference in mass and charge between the product peptide and the substrate peptide, resulting in a separation of the substrate and product pools in the sample. As the pools pass the LEDS within the instrument, these pools are detected and resolved as separate peaks. The ratio between these peaks therefore reflects the activity of the chemical matter at that concentration in that well, under those conditions.
FGFR-4 wild type assay at Km: In each well of a 384-well plate, 0.5 ng/ul of wild type FGFR-4 (Carna Biosciences, Inc.) was incubated in a total of 12.5 ul of buffer (100 mM HEPES pH 7.5, 0.015% Brij 35, 10 mM MgCl2, ImM DTT) with 1 uM CSKtide (5-FAM-KKKKEEIYFFFG-NH2) and 400 uM ATP at 25 C for 90 minutes in the presence or absence of a dosed concentration series of compound (1% DMSO final concentration). The reaction was stopped by the addition of 70 ul of Stop buffer (100 mM HEPES pH 7.5, 0.015% Brij 35, 35 mM EDTA and 0.2% of Coating Reagent 3 (Caliper Lifesciences)). The plate was then read on a Caliper LabChip® EZ Reader II (protocol settings: −1.9 psi, upstream voltage −700, downstream voltage −3000, post sample sip 35 s).
Such assays, carried out with a range of doses of test compounds, allow the determination of an approximate IC50 value. […] The following table lists the IC50 values of certain compounds of the invention.

For assay [3], the target named is T2, wild type FGFR-1 (Homo sapiens, UniProt P11362).
T2 construct: purchased Carna Biosciences, Inc
Put plainly: FGFR-1 wild type assay at Km (Caliper mobility shift). It counts as biochemical. The note with it: wild type FGFR-1, 400 uM ATP, 25 C, 90 minutes. The procedure: as §1, with “conditions. […]” for “conditions.”

Assay [4] addresses T3, wild type FGFR-3 (Homo sapiens, UniProt P22607).
T3 construct: purchased Carna Biosciences, Inc
Put plainly: FGFR-3 wild type assay at Km (Caliper mobility shift). It counts as biochemical. The conditions noted are these: wild type FGFR-3, 400 uM ATP, 25 C, 90 minutes. The procedure: as §1, with “conditions. […]” for “conditions.”

The target of assay [5] is T4, wild type FGFR-2 (Homo sapiens, UniProt P21802).
T4 construct: purchased Carna Biosciences, Inc
The assay is described as follows: FGFR-2 wild type assay at Km (Caliper mobility shift). It counts as biochemical. The conditions noted are these: wild type FGFR-2, 400 uM ATP, 25 C, 90 minutes. As to the method:
as §1, with “conditions. […]” for “conditions.”

T1 sequence (P22455 22-802): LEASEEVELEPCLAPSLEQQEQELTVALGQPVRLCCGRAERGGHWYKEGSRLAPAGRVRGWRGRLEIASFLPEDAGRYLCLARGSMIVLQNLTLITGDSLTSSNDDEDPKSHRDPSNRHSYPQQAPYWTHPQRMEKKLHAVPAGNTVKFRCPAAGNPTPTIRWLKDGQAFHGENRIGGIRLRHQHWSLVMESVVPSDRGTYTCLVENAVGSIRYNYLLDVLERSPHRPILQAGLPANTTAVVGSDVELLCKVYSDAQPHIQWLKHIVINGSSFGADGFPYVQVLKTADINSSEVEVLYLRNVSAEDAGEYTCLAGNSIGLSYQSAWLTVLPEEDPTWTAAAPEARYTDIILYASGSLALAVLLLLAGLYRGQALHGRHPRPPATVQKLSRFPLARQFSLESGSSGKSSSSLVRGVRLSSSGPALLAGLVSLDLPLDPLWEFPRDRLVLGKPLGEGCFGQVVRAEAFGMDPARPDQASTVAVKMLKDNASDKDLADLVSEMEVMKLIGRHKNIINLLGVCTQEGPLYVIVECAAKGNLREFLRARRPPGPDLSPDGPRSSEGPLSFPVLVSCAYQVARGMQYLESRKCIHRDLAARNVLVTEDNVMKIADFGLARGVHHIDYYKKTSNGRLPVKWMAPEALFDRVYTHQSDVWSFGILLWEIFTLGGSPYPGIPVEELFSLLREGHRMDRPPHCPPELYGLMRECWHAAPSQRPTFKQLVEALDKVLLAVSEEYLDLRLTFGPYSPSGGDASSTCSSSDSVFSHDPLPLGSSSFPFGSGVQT
T3 sequence (P22607 23-806): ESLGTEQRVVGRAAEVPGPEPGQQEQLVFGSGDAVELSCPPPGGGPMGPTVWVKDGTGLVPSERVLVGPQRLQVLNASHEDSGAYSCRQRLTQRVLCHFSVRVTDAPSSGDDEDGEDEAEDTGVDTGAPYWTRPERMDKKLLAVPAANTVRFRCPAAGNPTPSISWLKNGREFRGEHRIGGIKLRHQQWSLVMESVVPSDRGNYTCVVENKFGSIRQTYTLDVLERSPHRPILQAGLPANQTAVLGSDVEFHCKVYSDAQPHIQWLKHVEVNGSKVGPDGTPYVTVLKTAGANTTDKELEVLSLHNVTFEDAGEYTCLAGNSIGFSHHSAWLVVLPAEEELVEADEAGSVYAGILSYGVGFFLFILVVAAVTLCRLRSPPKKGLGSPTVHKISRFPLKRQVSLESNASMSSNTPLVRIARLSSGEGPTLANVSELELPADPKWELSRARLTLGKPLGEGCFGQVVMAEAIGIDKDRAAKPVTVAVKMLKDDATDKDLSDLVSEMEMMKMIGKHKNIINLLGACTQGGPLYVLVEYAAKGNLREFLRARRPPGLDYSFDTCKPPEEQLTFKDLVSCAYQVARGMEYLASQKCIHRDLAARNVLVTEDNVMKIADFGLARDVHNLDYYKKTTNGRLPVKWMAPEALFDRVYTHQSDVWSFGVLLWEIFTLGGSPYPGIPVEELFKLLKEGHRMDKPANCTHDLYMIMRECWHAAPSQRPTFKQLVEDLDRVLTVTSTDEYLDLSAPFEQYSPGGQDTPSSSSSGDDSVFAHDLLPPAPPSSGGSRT
T4 sequence (P21802 22-821): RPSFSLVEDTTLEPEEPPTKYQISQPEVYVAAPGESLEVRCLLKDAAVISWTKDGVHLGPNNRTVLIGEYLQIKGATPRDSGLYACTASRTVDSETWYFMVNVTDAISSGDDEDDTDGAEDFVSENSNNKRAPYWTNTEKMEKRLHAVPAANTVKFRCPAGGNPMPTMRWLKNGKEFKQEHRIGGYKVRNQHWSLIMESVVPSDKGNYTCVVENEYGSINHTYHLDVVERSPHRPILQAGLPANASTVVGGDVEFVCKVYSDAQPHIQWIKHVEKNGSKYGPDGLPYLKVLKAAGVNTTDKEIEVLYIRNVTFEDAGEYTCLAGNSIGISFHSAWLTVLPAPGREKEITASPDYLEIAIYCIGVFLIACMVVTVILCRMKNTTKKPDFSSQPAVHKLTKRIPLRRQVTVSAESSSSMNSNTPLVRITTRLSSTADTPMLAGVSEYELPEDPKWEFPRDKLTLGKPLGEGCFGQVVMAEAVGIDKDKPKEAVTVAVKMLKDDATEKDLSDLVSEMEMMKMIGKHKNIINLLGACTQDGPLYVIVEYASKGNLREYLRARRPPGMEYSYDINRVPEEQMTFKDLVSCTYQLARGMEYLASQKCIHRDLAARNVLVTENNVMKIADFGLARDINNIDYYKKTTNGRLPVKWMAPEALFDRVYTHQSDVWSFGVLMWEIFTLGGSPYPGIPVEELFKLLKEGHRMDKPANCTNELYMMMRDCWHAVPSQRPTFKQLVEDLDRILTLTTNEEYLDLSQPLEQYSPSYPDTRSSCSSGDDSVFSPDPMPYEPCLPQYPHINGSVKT
T2 sequence (P11362 22-822): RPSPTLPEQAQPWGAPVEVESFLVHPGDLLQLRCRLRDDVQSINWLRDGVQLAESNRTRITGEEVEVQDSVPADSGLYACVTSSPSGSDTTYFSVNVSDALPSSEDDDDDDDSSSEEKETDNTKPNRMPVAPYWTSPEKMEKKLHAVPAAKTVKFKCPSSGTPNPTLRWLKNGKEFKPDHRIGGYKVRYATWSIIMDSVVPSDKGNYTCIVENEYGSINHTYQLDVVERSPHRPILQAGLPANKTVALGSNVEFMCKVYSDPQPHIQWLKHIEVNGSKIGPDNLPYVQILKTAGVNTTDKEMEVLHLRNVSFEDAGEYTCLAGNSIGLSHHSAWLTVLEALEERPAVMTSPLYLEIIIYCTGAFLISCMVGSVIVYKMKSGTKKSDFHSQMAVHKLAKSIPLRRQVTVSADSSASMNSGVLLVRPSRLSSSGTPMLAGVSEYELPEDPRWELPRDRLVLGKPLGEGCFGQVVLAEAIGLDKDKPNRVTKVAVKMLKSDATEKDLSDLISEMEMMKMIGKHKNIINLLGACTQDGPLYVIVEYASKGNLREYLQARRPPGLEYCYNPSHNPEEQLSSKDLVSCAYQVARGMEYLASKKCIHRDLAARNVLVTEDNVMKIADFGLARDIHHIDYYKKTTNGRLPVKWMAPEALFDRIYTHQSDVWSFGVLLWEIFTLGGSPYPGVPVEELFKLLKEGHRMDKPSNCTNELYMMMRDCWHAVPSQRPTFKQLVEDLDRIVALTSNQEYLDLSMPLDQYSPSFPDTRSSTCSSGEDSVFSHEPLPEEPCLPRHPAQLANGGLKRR

`C=CC(=O)Nc1cccc(C)c1Nc1ncc2cc(-c3c(Cl)c(OC)cc(OC)c3Cl)ccc2n1` [BLU9931, reference compound]: the IC50 in assay [1] is 280 nM.
Consider `C=CC(=O)Nc1cccc(C)c1Nc1ncc2cc(-c3c(Cl)c(OC)cc(OC)c3Cl)c(=O)n(CCCN3CCN(C(=O)C=C)CC3)c2n1` [CY-15-8], for which, in assay [2], the IC50 was below 50 nM.
As to `C=CC(=O)Nc1cccc(C)c1Nc1ncc2cc(-c3c(Cl)c(OC)cc(OC)c3Cl)c(=O)n(CCN3CCN(C(=O)C=C)CC3)c2n1` [CY-15-7], the IC50 in assay [2] was below 50 nM.
As for `C=CC(=O)Nc1ccc(Cn2c(=O)c(-c3c(Cl)c(OC)cc(OC)c3Cl)cc3cnc(Nc4c(C)cccc4NC(=O)C=C)nc32)cc1` [CY-15-2, N-(4-((2-((2-acrylamido-6-methylphenyl)amino)-6-(2,6-dichloro-3,5-dimethoxyphenyl)-7-oxopyrido[2,3-d]pyrimidin-8(7H)-yl)methyl)phenyl)acrylamide], the IC50 is 490 nM in assay [1]; above 1000 nM in assay [3]; above 1000 nM in assay [4]; below 50 nM in assay [2]; above 1000 nM in assay [5].
On to `C=CC(=O)Nc1cccc(C)c1Nc1ncc2cc(-c3c(Cl)c(OC)cc(OC)c3Cl)c(=O)n(CC3CCN(C(=O)/C=C/CN(C)C)C3)c2n1` (stereo not shown) [CY-15-5], for which the IC50 in assay [2] is below 50 nM.
For `C=CC(=O)Nc1cccc(C)c1Nc1ncc2cc(-c3c(Cl)c(OC)cc(OC)c3Cl)c(=O)n(CC3CN(C(=O)/C=C/CN(C)C)C3)c2n1` [CY-15-4], in assay [2], the IC50 was below 50 nM.
Consider `C=CC(=O)Nc1ccc(CCn2c(=O)c(-c3c(Cl)c(OC)cc(OC)c3Cl)cc3cnc(Nc4c(C)cccc4NC(=O)C=C)nc32)cc1` [CY-15-3, N-(4-(2-(2-(2-acrylamido-6-methylphenylamino)-6-(2,6-dichloro-3,5-dimethoxyphenyl)-7-oxopyrido[2,3-d]pyrimidin-8(7H)-yl)ethyl)phenyl)acrylamide], for which the IC50 in assay [1] was 660 nM; in assay [3] it was above 1000 nM; in assay [4] it was above 1000 nM; in assay [2], below 50 nM; in assay [5], above 1000 nM.
Regarding `C=CC(=O)Nc1cccc(C)c1Nc1ncc2cc(-c3c(Cl)c(OC)cc(OC)c3Cl)c(=O)n(CC3CCN(C(=O)/C=C/CN(C)C)CC3)c2n1` [CY-15-6], the IC50 in assay [2] was below 50 nM.
